According to patent US20120010161A1, “NOVEL AZAPEPTIDE OR AZAPEPTIDOMIMETIC COMPOUNDS INHIBITING BCRP AND/OR P-GP” (CENTRE NATIONAL DE LA RECHERCHE SCIENTIFIQUE, priority 2009, published 2012):
Several values for one entry are separate records, joined by “and”; a condition that tells them apart may be missing. Identical values can stand only once.

Experiments:
[1] = molecular target: T1, BCRP/ABCG2 (Homo sapiens, UniProt Q9UNQ0); experiment: Flow cytometry: mitoxantrone efflux induced by ABCG2 in transfected HEK-293 cells; type: cell-based; settings: for inhibition at 2 μM / inhibition at 10 μM: human, HEK-293 cells transfected with ABCG2 (vector pcDNA3.1), probe mitoxantrone (5 μM); for inhibition at 2 μM: 2 μM compound, read-out: BCRP/ABCG2 % efficacy 2 μM; for inhibition at 2 μM / inhibition at 10 μM / IC50 / BCRP/ABCG2 IC50, μM: mitoxantrone efflux, HEK-293 cells; for inhibition at 10 μM: 10 μM compound, three independent experiments, read-out: BCRP/ABCG2 % efficacy 10 μM
T1 construct: expressed in transfected cells; host or cells: HEK-293 transfected with pcDNA3.1-ABCG2
T1 sequence (Q9UNQ0 1-655): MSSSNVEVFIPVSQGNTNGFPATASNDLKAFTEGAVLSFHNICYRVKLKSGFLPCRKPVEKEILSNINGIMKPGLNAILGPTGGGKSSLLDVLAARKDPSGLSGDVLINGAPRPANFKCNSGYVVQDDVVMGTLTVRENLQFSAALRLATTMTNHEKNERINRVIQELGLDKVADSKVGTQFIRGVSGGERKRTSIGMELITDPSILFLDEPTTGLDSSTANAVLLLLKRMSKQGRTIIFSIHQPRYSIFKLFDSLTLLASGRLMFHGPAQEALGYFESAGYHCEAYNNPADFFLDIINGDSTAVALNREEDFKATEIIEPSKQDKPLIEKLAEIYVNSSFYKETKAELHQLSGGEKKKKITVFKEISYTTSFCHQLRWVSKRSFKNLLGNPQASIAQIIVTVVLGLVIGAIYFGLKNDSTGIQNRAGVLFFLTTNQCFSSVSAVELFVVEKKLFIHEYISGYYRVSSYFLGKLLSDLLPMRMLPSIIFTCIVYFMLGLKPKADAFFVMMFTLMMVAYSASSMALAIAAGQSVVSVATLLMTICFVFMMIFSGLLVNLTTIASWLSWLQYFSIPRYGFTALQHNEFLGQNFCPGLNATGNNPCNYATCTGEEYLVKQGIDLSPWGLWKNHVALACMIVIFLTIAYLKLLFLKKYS
Description: (§1) Cell cultures. The human […] HEK-293 transfected with the vector pcDNA3.1 including or not the gene encoding ABCG2 (Robey, R. W., Honjo, Y., Morisaki, K., Nadjem, T. A., Runge, S., Risbood, M., Poruchynsky, M. S., Bates, S. E. 2003, Br. J. Cancer 89(10) 1971-1978) was used to test the efficacy of the products on ABCG2. The newborn hamster kidney cell line BHK21 either natural (negative control) or transfected with the vector pNUT-MRP/His expressing the gene encoding ABCC1 (Chang, Xiu-Bao, Hou, Yue-Xian, Riordan, John R. 1997, J. Biol. Chem. 272(49) 30962-30968) was used to test the efficacy of the products on ABCC1. The cell line NIH3T3 natural or transfected with the vector pHaMDR1/A expressing ABCB1 (Cardarelli, Carol O., Aksentijevich, Ivan, Pastan, Ira, Gottesman, Michael M. 1995 Cancer Res. 55 1086-1091) was used to test the efficacy of the compounds on ABCB1. The various cell types are cultured according to the protocols described previously (Robey, R. W., Honjo, Y., Morisaki, K., Nadjem, T. A., Runge, S., Risbood, M., Poruchynsky, M. S., Bates, S. E. 2003, Br. J. Cancer 89(10) 1971-1978 for the line HEK293, Chang, Xiu-Bao, Hou, Yue-Xian, Riordan, John R. 1997, J. Biol. Chem. 272(49) 30962-30968 for the line BHK21 and Cardarelli, Carol O., Aksentijevich, Ivan, Pastan, Ira, Gottesman, Michael M. 1995 Cancer Res. 55 1086-1091 for the line NIH3T3).
(§2) FIG. 1 schematically illustrates an efflux of substrate induced by a typical ABC transporter. The substrates S, such as mitoxantrone effluxed with ABCG2 and ABCB1 or daunorubicin effluxed with ABCC1, are accumulated in the cells and expelled by the transporter T, leading to a decrease in intracellular fluorescence. In the case of accumulation of the product, typically by inhibition of the efflux protein, the intracellular fluorescence increases.
(§3) Flow cytometry. Transfected or untransfected HEK-293 and BHK-21 cells are in a first stage placed in contact with substrate (5 μM mitoxantrone or 1 μM daunorubicin depending on the transporter). The substrate is accumulated for 30 minutes at 37° C. in the presence or absence of varied concentrations of the test molecules, at 0.5% of DMSO final. After washing with PBS, the cells are incubated in medium containing the same concentrations of test molecules as previously, for 1 hour at 37° C. The drug intracellular fluorescence is measured with a FACscan flow cytometer (Becton Dickinson, Mountain View, Calif.). The fluorescent substrates are excited at 488 nm; the fluorescence emission of mitoxantrone (MTX) is measured at 650 nm and that of daunorubicin is measured at 530 nm. The efficacy of the test molecules is estimated by means of equation 1:
(§4) % efficacy=100×(FA−FBG)/(FC−FBG),
(§5) in which: • FA corresponds to the intracellular level of substrate measured in the cells overexpressing the transporter T (corresponding to the lowest level of fluorescence in the absence of inhibitor), • FC corresponds to the fluorescence in the control cells not expressing the test transporter. This is thus the maximum accumulation of substrate in the cells), • FBG corresponds to the fluorescence measured in the absence of substrate and in the presence of inhibitor.
(§6) The compounds presented in TABLES 2 to 5 were tested by flow cytometry on mammalian cell lines selectively expressing the efflux proteins ABCG2, ABCB1 or ABCC1, as described previously.
(§7) The mitoxantrone efflux induced by ABCG2 or ABCB1 and the daunorubicin efflux induced by ABCC1 are estimated by flow cytometry, as described previously, at 10 μM of each test compound, and then at 2 μM for the compounds showing at least 80% efficacy at 10 μM. The concentration inducing 50% inhibition (IC50) was estimated for the most efficient aza derivatives. The values are obtained by three independent experiments and were adjusted using the SigmaPlot software.

[2] = molecular target: T2, P-gp/ABCB1 (Homo sapiens, UniProt P08183); experiment: Flow cytometry: mitoxantrone efflux induced by ABCB1 in transfected NIH3T3 cells; type: cell-based; settings: for inhibition at 2 μM / inhibition at 10 μM: human, NIH3T3 cells transfected with ABCB1 (vector pHaMDR1/A), probe mitoxantrone (5 μM); for inhibition at 2 μM: 2 μM compound, read-out: P-gp/ABCB1 % efficacy 2 μM; for inhibition at 10 μM: 10 μM compound, read-out: P-gp/ABCB1 % efficacy 10 μM
T2 construct: expressed in transfected cells; host or cells: NIH3T3 transfected with pHaMDR1/A
Description: as §1, §2, §3, §4, §5, §6, §7

T2 sequence (P08183 whole entry): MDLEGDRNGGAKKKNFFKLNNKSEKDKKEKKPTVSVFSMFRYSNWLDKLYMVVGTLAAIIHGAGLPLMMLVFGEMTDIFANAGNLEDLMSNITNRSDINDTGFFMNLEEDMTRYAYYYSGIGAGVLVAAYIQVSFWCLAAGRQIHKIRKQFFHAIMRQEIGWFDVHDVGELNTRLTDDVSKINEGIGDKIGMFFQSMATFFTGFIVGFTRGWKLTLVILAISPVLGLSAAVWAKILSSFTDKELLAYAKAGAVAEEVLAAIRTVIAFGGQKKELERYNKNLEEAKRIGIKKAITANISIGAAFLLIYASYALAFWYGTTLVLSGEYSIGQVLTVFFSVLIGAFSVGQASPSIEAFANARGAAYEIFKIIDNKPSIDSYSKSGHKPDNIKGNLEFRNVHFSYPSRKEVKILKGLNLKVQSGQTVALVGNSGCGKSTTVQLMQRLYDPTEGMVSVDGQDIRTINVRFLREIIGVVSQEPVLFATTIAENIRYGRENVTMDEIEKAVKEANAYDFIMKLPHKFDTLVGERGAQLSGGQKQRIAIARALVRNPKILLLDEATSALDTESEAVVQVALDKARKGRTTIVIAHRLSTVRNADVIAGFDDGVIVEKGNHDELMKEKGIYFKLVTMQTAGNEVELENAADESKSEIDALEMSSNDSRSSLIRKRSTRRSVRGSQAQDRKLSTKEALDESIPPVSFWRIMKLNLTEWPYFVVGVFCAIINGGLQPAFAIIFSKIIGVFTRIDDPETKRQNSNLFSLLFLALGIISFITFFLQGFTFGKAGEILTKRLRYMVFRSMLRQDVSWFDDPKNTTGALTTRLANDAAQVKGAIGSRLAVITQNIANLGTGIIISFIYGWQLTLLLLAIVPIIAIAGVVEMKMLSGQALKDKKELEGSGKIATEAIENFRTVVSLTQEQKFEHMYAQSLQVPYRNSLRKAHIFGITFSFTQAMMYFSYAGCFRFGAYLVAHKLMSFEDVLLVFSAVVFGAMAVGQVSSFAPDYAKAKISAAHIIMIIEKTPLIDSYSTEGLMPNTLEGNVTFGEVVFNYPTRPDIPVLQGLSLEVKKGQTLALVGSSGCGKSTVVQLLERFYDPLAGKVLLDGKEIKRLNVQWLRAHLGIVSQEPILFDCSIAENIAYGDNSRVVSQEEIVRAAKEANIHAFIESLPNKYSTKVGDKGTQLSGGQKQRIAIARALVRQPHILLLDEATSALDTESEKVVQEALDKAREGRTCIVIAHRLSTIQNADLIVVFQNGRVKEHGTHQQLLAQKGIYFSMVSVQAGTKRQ

Compound	inhibition at 2 μM [1]	inhibition at 10 μM [1]	IC50 [1]	IC50 [2]	inhibition at 2 μM [2]	inhibition at 10 μM [2]	selectivity toward one or other of the proteins BCRP or P-gp ([1]; BCRP versus P-gp)	BCRP/ABCG2 IC50, μM [1]	P-gp/ABCB1 IC50, μM [2]
CC(C)(C)OC(=O)NN(C(=O)N[C@@H](CCCCNC(=O)OCc1ccccc1)C(=O)OC(C)(C)C)c1ccccc1C(=O)OCc1ccccc1 [IA.1, tert-Butyl ester of (2S)-6-(benzyloxycarbonylamino)-2-[1-(2′-(benzyloxycarbonyl)phenyl)-2-(tert-butoxycarbonyl)hydrazino-carbonylamino]hexanoic acid]	53 ± 10%	112 ± 6%	2000 nM	≤ 500 nM	70 ± 10%	74 ± 1%			
CC(C)(C)OC(=O)NN(C(=O)N[C@@H](CCCCNC(=O)OCc1ccccc1)C(=O)OC(C)(C)C)c1cccc(C(=O)OCc2ccccc2)c1 [IA.2, tert-Butyl ester of (2S)-6-(benzyloxycarbonylamino)-2-[1-(3′-(benzyloxycarbonyl)phenyl)-2-(tert-butoxycarbonyl)hydrazino-carbonylamino]hexanoic acid]	86 ± 14%	112 ± 26%	1000 nM and 1060 nM			< 50%	selective		
CC(C)(C)OC(=O)N[C@H](CNN(CCCCCCNC(=O)OCc1ccccc1)C(=O)OC(C)(C)C)CC(=O)OCc1ccccc1 [IB.1, Benzyl ester of (3S)-4-[2-(6-benzyloxycarbonylaminohexyl)-2-tert-butoxycarbonylhydrazino]-3-tert-butoxycarbonylaminobutyric acid]	72 ± 1%	87 ± 27%	900 ± 50 nM	1000 nM	70 ± 20%	63 ± 5%		micromolar or submicromolar	micromolar or submicromolar
CC(C)(C)OC(=O)N[C@H](CNN(CCCCCCNC(=O)OCc1ccccc1)C(=O)OCc1ccccc1)CC(=O)OCc1ccccc1 [IB.11, Benzyl ester of (3S)-4-[2-benzyloxycarbonyl-2-(6-benzyloxycarbonylaminohexyl)hydrazino]-3-tert-butoxycarbonyl-aminobutyric acid]	92 ± 2%	104 ± 10%	500 ± 50 nM	700 ± 100 nM				micromolar or submicromolar	micromolar or submicromolar
